# Measurements reported in patent publication US20250090699A1, “FAP TARGETING CYCLIC PEPTIDES AND CONJUGATES THEREOF” (Novartis AG, priority 2023, published 2025).
# pIC50, pKd: −log10 of the molar value. Counter-ions that a name gives are not always drawn. Starred links: 1 amine or outer side, 2 acyl side, 3 side chain; linkers in the order of their positions; H or OH if unused. Non-standard residues stand in square brackets, D forms with d. Residues, ends and D or L forms follow the SMILES beside them. Groups on a side chain read outwards from the residue. *: point of attachment. AAZTA5 = O=C(O)CN1CCN(CC(=O)O)CC(CCCCC(=O)*)(N(CC(=O)O)CC(=O)O)C1; Trp(6-OH) = N[C@@H](Cc1c[nH]c2cc(O)ccc12)C(=O)O; NOTA = O=C(O)CN1CCN(CC(=O)O)CCN(CC(=O)*)CC1; Phe(4-CH2NH2) = NCc1ccc(C[C@H](N)C(=O)O)cc1; Piperazinyl(4-CH2COOH) = O=C(O)CN1CCN(*)CC1; AEF = NCCOc1ccc(C[C@H](N)C(=O)O)cc1; NMeY = CN[C@@H](Cc1ccc(O)cc1)C(=O)O; Hyp = O=C(O)[C@@H]1C[C@@H](O)CN1; NMeF = CN[C@@H](Cc1ccccc1)C(=O)O; Ahp(2) = CCCCC[C@H](N)C(=O)O; hSer = N[C@@H](CCO)C(=O)O; AEEA = NCCOCCOCC(=O)O; CO = O=C([*:1])[*:2]; Propyl = CCC*
# How the values were obtained:
# mouse FAP [1] = target: T1, mouse FAP (Mus musculus, UniProt P97321); test: Enzymatic FAP competition assay (Z-Gly-Pro-AMC fluorescence), mouse FAP; type: biochemical; details: read-out: m. FAP, Enz., IC50
# T1 construct: biotinylated His, Avi tag, mouse FAP (26-761, FAP-M82Q5); His; Avi tag (biotinylated); purchased AcroBiosystems FAP-M82Q5
# T1 sequence (P97321 26-761): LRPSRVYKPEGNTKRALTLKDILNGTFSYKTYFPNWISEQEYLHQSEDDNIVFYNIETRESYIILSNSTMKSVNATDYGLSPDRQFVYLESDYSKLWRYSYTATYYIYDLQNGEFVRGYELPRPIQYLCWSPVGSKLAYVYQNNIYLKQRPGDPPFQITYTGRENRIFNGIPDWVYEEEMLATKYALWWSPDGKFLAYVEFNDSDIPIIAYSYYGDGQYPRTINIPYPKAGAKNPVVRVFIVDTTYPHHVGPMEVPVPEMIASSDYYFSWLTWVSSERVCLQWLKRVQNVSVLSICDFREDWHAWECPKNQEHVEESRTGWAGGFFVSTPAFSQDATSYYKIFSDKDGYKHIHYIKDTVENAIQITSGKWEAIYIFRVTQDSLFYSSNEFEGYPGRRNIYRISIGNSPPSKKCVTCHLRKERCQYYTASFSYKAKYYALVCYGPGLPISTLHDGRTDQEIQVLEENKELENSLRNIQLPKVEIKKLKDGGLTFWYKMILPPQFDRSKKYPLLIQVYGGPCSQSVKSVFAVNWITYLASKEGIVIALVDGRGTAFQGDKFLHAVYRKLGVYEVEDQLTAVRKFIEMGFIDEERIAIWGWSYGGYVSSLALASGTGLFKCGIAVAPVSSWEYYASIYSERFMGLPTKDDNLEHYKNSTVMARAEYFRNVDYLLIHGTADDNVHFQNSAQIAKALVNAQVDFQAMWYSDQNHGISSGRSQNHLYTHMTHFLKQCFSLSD
# Description: (§1) Peptide potencies (IC50) to inhibit the FAP enzymatic activity were determined using a fluorescence-based assay towards the biotinylated His, Avi tag, human FAP (26-760, FAP-H82Q6) and the biotinylated His, Avi tag, mouse FAP (26-761, FAP-M82Q5). Standard assay conditions consisted of 20 μL total volume in white 384-well plates (Greiner, Ref. 784075), in 50 mM phosphate buffer pH 7.5 containing 150 mM NaCl, 0.05% Tween20 and 1% final DMSO. Tested peptides at 14 different concentrations up to 1 μM were added to 0.01 nM human or mouse FAP. The peptides were incubated for 24 hours together with the protein before adding the substrate 50 μM Z-Gly-Pro-AMC (I-1145 from Bachem). Samples were then incubated at 22-24° C. for 4 h before reading the fluorescence at excitation wavelength of 380 nm and emission wavelength of 460 nm using the Tecan Infinite® M1000 PRO. The high control (100% activity) was not containing any peptide, and an internal potent peptide was added at 10 μM concentration for the low control (100% inhibition). IC50 values were calculated by curve fitting using an in-house developed software (Novartis Helios software application) using the method described by Fomenko et al., 2006 (regression algorithms for nonlinear dose-response curve fitting). Following normalization of activity values for the wells to % inhibition (% inhibition=[(high control-sample)/(high control-low control)]x 100). IC50 fitting was carried out from the duplicated points.
# human FAP = target: T2, human FAP (Homo sapiens, UniProt Q12884); test: Enzymatic FAP competition assay (Z-Gly-Pro-AMC fluorescence), human FAP; type: biochemical; details: read-out: h. FAP, Enz., IC50
# T2 construct: the biotinylated His, Avi tag, human FAP (26-760, FAP-H82Q6); His; Avi tag (biotinylated); purchased AcroBiosystems FAP-H82Q6
# T2 sequence (Q12884 26-760): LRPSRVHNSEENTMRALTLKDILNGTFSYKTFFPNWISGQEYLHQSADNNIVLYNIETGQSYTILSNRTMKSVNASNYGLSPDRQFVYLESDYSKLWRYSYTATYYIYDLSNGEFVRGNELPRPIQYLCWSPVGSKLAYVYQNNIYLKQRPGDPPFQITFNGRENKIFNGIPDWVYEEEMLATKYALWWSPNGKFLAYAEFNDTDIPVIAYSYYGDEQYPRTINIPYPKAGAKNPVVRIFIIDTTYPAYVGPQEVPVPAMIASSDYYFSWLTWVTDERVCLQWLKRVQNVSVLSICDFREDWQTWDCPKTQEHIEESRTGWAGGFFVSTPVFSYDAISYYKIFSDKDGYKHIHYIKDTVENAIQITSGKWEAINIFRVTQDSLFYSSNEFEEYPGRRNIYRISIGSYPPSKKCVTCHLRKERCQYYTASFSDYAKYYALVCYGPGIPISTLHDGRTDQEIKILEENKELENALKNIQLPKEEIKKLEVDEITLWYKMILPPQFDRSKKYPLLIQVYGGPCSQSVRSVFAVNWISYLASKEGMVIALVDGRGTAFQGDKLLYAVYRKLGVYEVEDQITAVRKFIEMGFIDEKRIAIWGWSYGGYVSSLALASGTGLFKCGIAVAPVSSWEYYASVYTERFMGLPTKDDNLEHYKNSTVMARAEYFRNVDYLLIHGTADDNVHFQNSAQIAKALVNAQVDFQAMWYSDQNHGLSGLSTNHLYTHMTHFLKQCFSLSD
# Description: as §1
# mouse FAP [2] = target: T1, mouse FAP; test: Surface plasmon resonance (SPR) for peptide affinity, mouse FAP; type: binding
# Description: Peptide affinities (KD) were determined by SPR using a Biacore™ 8K device (Cytiva) towards the following proteins: biotinylated His, Avi tag, human FAP (26-760, FAP-H82Q6), biotinylated His, Avi tag, mouse FAP (26-761, FAP-M82Q5), His tag, human DPP4 (34-766, DP4-H82E3), all purchased from AcroBiosystems and His tag, mouse DPP4 (29-760, 954-SE) from R&D Systems. The FAP proteins and their homologous were diluted to a concentration of 2 μg/mL into acetate buffer pH 5.5, then immobilized onto a CM5 sensorchip (Cytiva, BR-1005-30) to reach a response around 2000 R U. The running buffer HBS-EP+pH 7.6 (20× from Teknova CAT. No: H8022) contained 10 mM HEPES pH 7.6, 150 mM NaCl, 3 mM EDTA, 0.05% Tween20 and 2% DMSO. Experiments were carried out at 25° C. using a flow rate of 30 μL/min. Compounds were tested in single cycle kinetic mode at 8 different concentrations. Curve fitting was performed using the Biacore™ 8K evaluation software. The sensorgrams were fitted by applying a 1:1 binding model to calculate kinetic rate constants and equilibrium dissociation constants (KD).
# For this assay, the setup had the same conditions (flow rate, running buffer, peptide dilution) as described above for the CM5 method. The oligo CAP reagent obtained in the CAPture Kit (Ref. 28920234) was 1/5 diluted into running buffer and used with a contact time of 300 s at a flow rate of 2 μL/min. The human and mouse FAP constructs described above were used (from AcroBiosystems or produced in house). The FAP proteins were diluted to a concentration of 2 μg/mL into acetate pH 5.5, 0.05% Tween20 and used with a contact time of 600 s at a flow rate of 10 μL/min. The peptides were tested with an association time of 280 s followed by a dissociation time of 3000 s at a flow rate of 30 μL/min. The regeneration was done using the regeneration solution (8 M guanidine-HCl, 1 M NaOH) as obtained with a contact time of 270 s at a flow rate of 10 μL/min. […] The compounds marked with an asterisk were tested against human and mouse DDP4.
pIC50 (mouse FAP [1]),pIC50 (human FAP),pKd (mouse FAP [2]),Compound
10.00,10.52,9.60,"CCCOCC[C@@H]1NC(=O)[C@H](Cc2ccc(CNC(=O)COCCOCCNC(=O)CCCCC3(N(CC(=O)O)CC(=O)O)CN(CC(=O)O)CCN(CC(=O)O)C3)cc2)NC(=O)[C@H](Cc2ccccc2)N(C)C(=O)CNC(=O)CNC(=O)[C@H]2CCCN2C(=O)[C@H](CC(=O)O)NC(=O)[C@H](CCCCNC(=O)N2CCN(CC(=O)O)CC2)NC(=O)CNC(=O)[C@H](Cc2c[nH]c3ccccc23)NC1=O [Example B31, Gly-Gly-NMePhe-F(4amPEG2NHAAZTA)-hS(Pr)-Trp-Gly-K(COpipzaa)-Asp-D-Pro] (cyclo(D[dP]GG[NMeF][Phe(4-CH2NH2)]([AEEA-AAZTA5])[hSer](Propyl)WGK([CO-Piperazinyl(4-CH2COOH)])))"
10.77,11.15,> 10.47,"CCCOCC[C@@H]1NC(=O)[C@H](Cc2ccc(CNC(=O)COCCOCCNC(=O)CN3CCN(CC(=O)O)CCN(CC(=O)O)CC3)cc2)NC(=O)[C@H](Cc2ccccc2)N(C)C(=O)CNC(=O)CNC(=O)[C@H]2CCCN2C(=O)[C@H](CC(=O)O)NC(=O)[C@H](CCCCNC(=O)N2CCN(CC(=O)O)CC2)NC(=O)CNC(=O)[C@H](Cc2c[nH]c3ccccc23)NC1=O [Example B34, Gly-Gly-NMePhe-F(4amPEG2NHNOTA-hS(Pr)-Trp-Gly-K(COpipzaa)-Asp-D-Pro] (cyclo(D[dP]GG[NMeF][Phe(4-CH2NH2)]([AEEA-NOTA])[hSer](Propyl)WGK([CO-Piperazinyl(4-CH2COOH)])))"

# Continued, compound first:
Compound,pIC50 (mouse FAP [1]),pIC50 (human FAP),pKd (mouse FAP [2])
"CCCCC[C@@H]1NC(=O)[C@H](Cc2ccc(O)cc2)NC(=O)[C@H](Cc2ccccc2)N(C)C(=O)CNC(=O)CNC(=O)[C@H]2CCCN2C(=O)[C@H](CC(=O)O)NC(=O)[C@H](Cc2ccc(O)cc2)N(C)C(=O)CNC(=O)[C@H](Cc2c[nH]c3ccccc23)NC1=O [Example A50, 2-((9S,12S,15S,18S,24S,27S,32aR)-18-((1H-indol-3-yl)methyl)-9-benzyl-12,24-bis(4-hydroxybenzyl)-8,23-dimethyl-1,4,7,10,13,16,19,22,25,28-decaoxo-15-pentyldotriacontahydropyrrolo[1,2-a][1,4,7,10,13,16,19,22,25,28]decaazacyclotriacontin-27-yl)acetic acid] (cyclo([Ahp(2)]WG[NMeY]D[dP]GG[NMeF]Y))",8.62,9.02,8.55
"CCCCC[C@@H]1NC(=O)[C@H](Cc2ccc(O)cc2)NC(=O)[C@H](Cc2ccccc2)N(C)C(=O)CNC(=O)[C@H](CCCCN)NC(=O)[C@H]2CCCN2C(=O)[C@H](CC(=O)O)NC(=O)[C@H](Cc2ccc(O)cc2)NC(=O)CNC(=O)[C@H](Cc2c[nH]c3cc(O)ccc23)NC1=O [Example A24, Lys-Gly-NMePhe-Tyr-Ahp-W(6OH)-Gly-Tyr-Asp-D-Pro, TFA salt] (cyclo([Ahp(2)][Trp(6-OH)]GYD[dP]KG[NMeF]Y))",8.89,9.43,9.07
"CCCCC[C@@H]1NC(=O)[C@H](Cc2ccc(OCCN)cc2)NC(=O)[C@H](Cc2ccccc2)N(C)C(=O)CNC(=O)[C@@H]2C[C@@H](O)CN2C(=O)[C@H]2CCCN2C(=O)[C@H](CC(=O)O)NC(=O)[C@H](Cc2ccc(O)cc2)NC(=O)CNC(=O)[C@H](Cc2c[nH]c3ccccc23)NC1=O [Example A33, trans4Hyp-Gly-NMePhe-F(4OEtNH2)-Ahp-Trp-Gly-Tyr-Asp-D-Pro] (cyclo([AEF][Ahp(2)]WGYD[dP][Hyp]G[NMeF]))",8.49,9.00,8.96
